Experiments:
Details in all cases: 72 h
BT-474 [1] = tested on: BT-474
In short: (§1)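 In this assay, breast cancer cell lines spent 72 h with compound at 5 concentrations in 10-fold steps over a compound-specific 10,000-fold range. The first readout was cell death by CellTox Green fluorescence, and the second was viability by CellTiter-Glo luminescence, each normalised per plate to 0.1 % DMSO and a positive kill control. EC50 came from the dose-response curves, censored at the top concentration.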

BT-549 [2] = tested on: BT-549
In short: as §1

CAL-120 [3] = tested on: CAL-120
In short: as §1

CAL-148 [4] = tested on: CAL-148
In short: as §1

CAL-51 [5] = tested on: CAL-51
In short: as §1

CAL-85-1 [6] = tested on: CAL-85-1
In short: as §1

DU-4475 [7] = tested on: DU-4475
In short: as §1

HCC1143 [8] = tested on: HCC1143
In short: as §1

HCC1599 [9] = tested on: HCC1599
In short: as §1

HCC1937 [10] = tested on: HCC1937
In short: as §1

HDQ-P1 [11] = tested on: HDQ-P1
In short: as §1

Hs578T [12] = tested on: Hs578T
In short: as §1

MCF-10A [13] = tested on: MCF-10A
In short: as §1

MDA-MB-231 [14] = tested on: MDA-MB-231
In short: as §1

MDA-MB-436 [15] = tested on: MDA-MB-436
In short: as §1

MDA-MB-453 = tested on: MDA-MB-453
In short: as §1

MDA-MB-468 [16] = tested on: MDA-MB-468
In short: as §1

MFM-223 [17] = tested on: MFM-223
In short: as §1

SK-BR-3 [18] = tested on: SK-BR-3
In short: as §1

CAL-51 [19] = tested on: CAL-51; remark: listed apart in the source
In short: (§2)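 Each 384-well plate was pre-loaded with compound dissolved in 5 µl medium, received breast cancer cells in 20 µl suspension, and was incubated 72 h. A 2.5 µl addition of CellTiter-Blue for 2 h at 37 °C was followed by a fluorescence read at 560/590 nm. Data were normalised per plate to vehicle and a positive kill control and checked by Z'-factor. EC50 was fitted from the percent-inhibition dose-response curve, censored at the highest concentration, excluding rows with a drug sensitivity score of zero.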

CAL-85-1 [20] = tested on: CAL-85-1; remark: listed apart in the source
In short: as §2

DU-4475 [21] = tested on: DU-4475; remark: listed apart in the source
In short: as §2

HDQ-P1 [22] = tested on: HDQ-P1; remark: listed apart in the source
In short: as §2

BT-474 [23] = tested on: BT-474; remark: listed apart in the source
In short: as §2

BT-549 [24] = tested on: BT-549; remark: listed apart in the source
In short: as §2

HCC1143 [25] = tested on: HCC1143; remark: listed apart in the source
In short: as §2

HCC1599 [26] = tested on: HCC1599; remark: listed apart in the source
In short: as §2

Hs578T [27] = tested on: Hs578T; remark: listed apart in the source
In short: as §2

MDA-MB-436 [28] = tested on: MDA-MB-436; remark: listed apart in the source
In short: as §2

MDA-MB-468 [29] = tested on: MDA-MB-468; remark: listed apart in the source
In short: as §2

MFM-223 [30] = tested on: MFM-223; remark: listed apart in the source
In short: as §2

SK-BR-3 [31] = tested on: SK-BR-3; remark: listed apart in the source
In short: as §2

BT-474 [32] = tested on: BT-474; remark: listed apart in the source
Procedure: (§3)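 Drug sensitivity and resistance testing (DSRT) of breast cancer cell lines in 384-well plates, 5 concentrations in 10-fold dilutions over a compound-specific 10,000-fold range. After 72 h, cytotoxicity was read by CellTox Green fluorescence and viability by CellTiter-Glo luminescence (multiplexed), normalised to DMSO and benzethonium chloride controls. EC50 is the inflection point of the fitted dose-response curve (bottom asymptote free, so it can be relative for partial curves) and is censored at the highest tested concentration. Rows with DSS 0 (no meaningful response) were excluded.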

CAL-120 [33] = tested on: CAL-120; remark: listed apart in the source
Procedure: as §3

CAL-148 [34] = tested on: CAL-148; remark: listed apart in the source
Procedure: as §3

CAL-51 [35] = tested on: CAL-51; remark: listed apart in the source
Procedure: as §3

CAL-85-1 [36] = tested on: CAL-85-1; remark: listed apart in the source
Procedure: as §3

DU-4475 [37] = tested on: DU-4475; remark: listed apart in the source
Procedure: as §3

HCC1143 [38] = tested on: HCC1143; remark: listed apart in the source
Procedure: as §3

HCC1937 [39] = tested on: HCC1937; remark: listed apart in the source
Procedure: as §3

HDQ-P1 [40] = tested on: HDQ-P1; remark: listed apart in the source
Procedure: as §3

Hs578T [41] = tested on: Hs578T; remark: listed apart in the source
Procedure: as §3

MCF-10A [42] = tested on: MCF-10A; remark: listed apart in the source
Procedure: as §3

MDA-MB-231 [43] = tested on: MDA-MB-231; remark: listed apart in the source
Procedure: as §3

MDA-MB-468 [44] = tested on: MDA-MB-468; remark: listed apart in the source
Procedure: as §3

## CO[C@H]1/C=C\C=C(/C)C(=O)NC2=CC(=O)C(NCCN(C)C)=C(C[C@@H](C)C[C@H](OC)[C@H](O)[C@@H](C)/C=C(\C)[C@@H]1OC(N)=O)C2=O [Alvespimycin]
BT-474 [1]
  EC50, CellTiter-Glo: 48.8 nM
BT-549 [2]
  EC50, CellTiter-Glo: 8.13 nM
CAL-120 [3]
  EC50, CellTiter-Glo: 46.2 nM
CAL-148 [4]
  EC50, CellTiter-Glo: 38.7 nM
CAL-51 [5]
  EC50, CellTiter-Glo: 48 nM
CAL-85-1 [6]
  EC50, CellTiter-Glo: 41.8 nM
DU-4475 [7]
  EC50, CellTiter-Glo: 34 nM
HCC1143 [8]
  EC50, CellTiter-Glo: 34.8 nM
HCC1599 [9]
  EC50, CellTiter-Glo: 91.5 nM
HCC1937 [10]
  EC50, CellTiter-Glo: 44.1 nM
HDQ-P1 [11]
  EC50, CellTiter-Glo: 30.2 nM
Hs578T [12]
  EC50, CellTiter-Glo: 45.7 nM
MCF-10A [13]
  EC50, CellTiter-Glo: 40.8 nM
MDA-MB-231 [14]
  EC50, CellTiter-Glo: 46.2 nM
MDA-MB-436 [15]
  EC50, CellTiter-Glo: 11.3 nM
MDA-MB-453
  EC50, CellTiter-Glo: 19.8 nM
MDA-MB-468 [16]
  EC50, CellTiter-Glo: 32 nM
MFM-223 [17]
  EC50, CellTiter-Glo: 17.6 nM
SK-BR-3 [18]
  EC50, CellTiter-Glo: 11 nM
CAL-51 [19]
  EC50, CellTiter-Blue viability: 53.3 nM
CAL-85-1 [20]
  EC50, CellTiter-Blue viability: 35.1 nM
DU-4475 [21]
  EC50, CellTiter-Blue viability: 15.3 nM
HDQ-P1 [22]
  EC50, CellTiter-Blue viability: 22.6 nM
BT-474 [23]
  EC50, CellTiter-Blue viability: 22.9 nM
BT-549 [24]
  EC50, CellTiter-Blue viability: 6.08 nM
HCC1143 [25]
  EC50, CellTiter-Blue viability: 26.2 nM
HCC1599 [26]
  EC50, CellTiter-Blue viability: 17.4 nM
Hs578T [27]
  EC50, CellTiter-Blue viability: 5.38 nM
MDA-MB-436 [28]
  EC50, CellTiter-Blue viability: 19.9 nM
MDA-MB-468 [29]
  EC50, CellTiter-Blue viability: 60.5 nM
MFM-223 [30]
  EC50, CellTiter-Blue viability: 8.78 nM
SK-BR-3 [31]
  EC50, CellTiter-Blue viability: 8.15 nM
BT-474 [32]
  EC50, CellTox Green: 77.3 nM
CAL-120 [33]
  EC50, CellTox Green: > 1000 nM
CAL-148 [34]
  EC50, CellTox Green: 45 nM
CAL-51 [35]
  EC50, CellTox Green: 35.8 nM
CAL-85-1 [36]
  EC50, CellTox Green: 187 nM
DU-4475 [37]
  EC50, CellTox Green: 26.6 nM
HCC1143 [38]
  EC50, CellTox Green: 138 nM
HCC1937 [39]
  EC50, CellTox Green: 781 nM
HDQ-P1 [40]
  EC50, CellTox Green: 12.2 nM
Hs578T [41]
  EC50, CellTox Green: 242 nM
MCF-10A [42]
  EC50, CellTox Green: 37.9 nM
MDA-MB-231 [43]
  EC50, CellTox Green: 171 nM
MDA-MB-468 [44]
  EC50, CellTox Green: 682 nM

Source: the supplement of paper PMC4862054
